What all share (format): cell-based
The subject of one test is H69AR. The experiment in a line: FMCA, H69AR doxorubicin-resistant lung cancer. Conditions: Homo sapiens, read-out: EC50 (μM) in various cancer cell lines: H69 AR. An excerpt: (§1) The Fluorometric Microculture Cytotoxicity Assay, FMCA, is a three day non-clonogenic microplate-based cell viability assay used for measurement of the cytotoxic and/or cytostatic effect of compounds in vitro (Lindhagen, E., et al. Nat Protoc, 2008. 3(8): p. 1364-9). FMCA (Larsson, R. and P. Nygren, Anticancer Res, 1989. 9(4): p. 1111-9) represents a valuable method to measure cytotoxicity in a number of cell types, both cell lines and primary cells from patients (Larsson, R., et al., Int J Cancer, 1992. 50(2): p. 177-85; Fridborg, H., et al., Eur J Cancer, 1999. 35(3): p. 424-32; Dhar, S., et al., Br J Cancer, 1996. 74(6): p. 888-96).
(§2) FMCA is based on the principle that fluorescein diacetate (FDA) is converted to the fluorescent probe fluorescein by esterases in the plasma membranes of living cells. For experiments, 96 or 384-well microplates are prepared with compounds and stored at −70° C. until use. Cells are then seeded into the drug-prepared plates and placed in an incubator for 72 h. On the last day of incubation, the plates are washed and a buffer containing FDA is added and incubated with the cells for 45 minutes. Finally the fluorescence per well is measured in a fluorometer and a Survival Index % (SI) for each compound-treated well is calculated with the equation: Compound-treated cells minus blank divided by control cells minus blank. A high SI-value indicates a large percentage of living cells and vice versa.
(§3) Compounds of the invention as well as kinase inhibitors sorafenib, sunitinib, dasatinib, and pazopanib (reference compounds) were diluted with PBS to a concentration which was ten-times higher than the desired starting concentration. Then, a Biomek 2000 liquid handling system was employed to serially dilute the compounds in a deep-well 384-well plate. From this plate, assay plates containing 5 μl compound per well were prepared with the Biomek 2000. Certain compounds precipitated when diluted with PBS, and these compounds were therefore prepared in a 96-well plate manually as described above using culture medium RPMI 1640 instead of PBS.
(§4) The compounds were also tested at five concentrations, with five times serial dilution on the following cell types: CCRF-CEM, hTERT-RPE1 (normal retinal epithelial cells), hRPTEpiC (normal renal cells) and PBMC (peripheral blood mononuclear cells). Each experiment was performed three times, except for PBMC and hRPTEpiC, which were performed twice. SI-values were calculated, graphs were plotted using GraphPadPrism 5.0 (GraphPad Software Inc. La Jolla, Calif.) and EC50-values for each cell type and compound were determined from the curves.
(§5) The compounds of the invention were also tested on further cancer cell lines related to colon cancer (HCT116; see e.g Brattain M G, et al. Cancer Res. 1981, 41, 1751-1756), breast cancer (MCF7; see e.g. Soule H D, et al. J. Natl. Cancer Inst. 1973, 51, 1409-1416), teniposide-resistant leukaemia (CEM/VM1; see e.g. Danks M K et al. Cancer Res. 1987, 47, 1297-1301), lung cancer (H69; see e.g. Gazdar A F, et al. Cancer Res. 1980, 40, 3502-3507), doxorubicin-resistant lung cancer (H69AR; see e.g. Mirski S E, et al. Cancer Res. 1987, 47, 2594-2598), myeloma (RPMI 8226; see e.g. Matsuoka Y, et al. Proc. Soc. Exp. Biol. Med. 1967, 125, 1246-1250), doxorubicin-resistant myeloma (8226/Dox40; see e.g. Dalton W S et al. Blood 1989, 15,747-752), lymphoma (U-937, see e.g. Sundstrom C, et al. Int. J. Cancer 1976, 17, 565-577), vincristin-resistant lymphoma (U-937-vcr; see e.g. Botling J, et al. Int J Cancer 1994, 15; 58 (2), 269-274), ovarian cancer (A2780; see e.g. Hamilton T C, et al. Semin Oncol. 1984, 11, 285-298), doxorubicin-resistant ovarian cancer (A2780/Adr), cisplatin-resistant ovarian cancer (A2780/Cis; see e.g. Behrens B C, et al. Cancer Res. 1987, 47, 414-418), renal cancer (ACHN; see e.g. Borden E C, et al. Cancer Res. 1982, 42(12), 4948-4953), pancreatic cancer (PANC-1, BxPC-3, and MIA PaCa-2; see e.g. Lieber M, et al. Int. […]

The test system of a further test is MCF7. The experiment in a line: FMCA, MCF7 breast cancer. Conditions: Homo sapiens, read-out: EC50 (μM) in various cancer cell lines: MCF7.
Excerpt: as §1, §2, §3, §4, §5

Another test deals with H69. In words: FMCA, H69 lung cancer. Conditions: Homo sapiens, NCI-H69, read-out: EC50 (μM) in various cancer cell lines: H69.
Excerpt: as §1, §2, §3, §4, §5

For another test, the system named is U-937-vcr. The experiment in a line: FMCA, U-937-vcr vincristin-resistant lymphoma. Conditions: read-out: EC50 (μM) in various cancer cell lines: U-937-ver.
Excerpt: as §1, §2, §3, §4, §5

The test system of a further test is ACHN. The experiment in a line: FMCA, ACHN renal cancer. Conditions: Homo sapiens, read-out: EC50 (μM) in various cancer cell lines: ACHN.
Excerpt: as §1, §2, §3, §4, §5

The subject of a further test is HCT116. In words: FMCA, HCT116 colon cancer. Conditions: Homo sapiens, HCT-116, read-out: EC50 (μM) in various cancer cell lines: HCT116.
Excerpt: as §1, §2, §3, §4, §5

The subject of a further test is U-937. In words: FMCA, U-937 lymphoma. Conditions: Homo sapiens, read-out: EC50 (μM) in various cancer cell lines: U-937.
Excerpt: as §1, §2, §3, §4, §5

The next test relates to 8226/Dox40. In words: FMCA, 8226/Dox40 doxorubicin-resistant myeloma. Conditions: read-out: EC50 (μM) in various cancer cell lines: 8226/Dox40.
Excerpt: as §1, §2, §3, §4, §5

Test [1] has as its system CCRF-CEM cancer cells - leukaemia. The experiment in a line: Fluorometric Microculture Cytotoxicity Assay (FMCA), CCRF-CEM. Conditions: Homo sapiens, 72 h incubation.
Excerpt: as §1, §2
In subsequent experiments, compounds were tested, along with kinase inhibitors (dasatinib, pazopanib, sorafenib, and sunitinib) as described above. Initially, the acute lymphoblastic leukaemia cell line CCRF-CEM (see e.g. Foley G E, et al. Cancer 1965, 18, 522-529) was used throughout. In the assay plates, medium was added to six empty wells (blank wells) and wells were filled with PBS and cell suspension and served as control wells. SI-values were then calculated for each compound-treated well as described above. All experiments were conducted twice and a new batch of plates was prepared for each experiment.
For dose-response experiments, 384-well plates were prepared as follows:
as §3, §4

In a further test the test system is CEM/VM1. In words: FMCA, CEM/VM1 teniposide-resistant leukaemia. Conditions: Homo sapiens, read-out: EC50 (μM) in various cancer cell lines: CEM/VM1.
Excerpt: as §1, §2, §3, §4, §5

In another test the test system is A2780. The experiment in a line: FMCA, A2780 ovarian cancer. Conditions: Homo sapiens, read-out: EC50 (μM) in various cancer cell lines: A2780.
Excerpt: as §1, §2, §3, §4, §5

In another test the test system is RPMI 8226. The experiment in a line: FMCA, RPMI 8226 myeloma. Conditions: Homo sapiens, read-out: EC50 (μM) in various cancer cell lines: RPMI 8226.
Excerpt: as §1, §2, §3, §4, §5

With `COc1ccc2[nH]cc(CCNc3nccc(NCc4ccc5[nH]c(C)cc5c4)n3)c2c1` [Example 64, N^2-[2-(5-methoxy-1H-indol-3-yl)ethyl]-N^4-(2-methyl-1H-indol-5-ylmethyl)pyrimidine-2,4-diamine], the EC50 in the test with H69AR turned out to be 0.29 µM; in the test on MCF7 it was 2.33 µM; with H69 it was 4.18 µM; with U-937-vcr, 0.32 µM; with ACHN it was 1.6 µM; in the test on HCT116, 1.33 µM. Moreover, the EC50 in the test on U-937 amounted to 0.08 µM; in the test on 8226/Dox40 it was 1.19 µM; in test [1] it was 50 nM; with CEM/VM1, 0.05 µM; in the test on A2780, 0.29 µM; in the test with RPMI 8226 it was 0.23 µM.
Consider `COc1ccc2[nH]cc(CCNc3nccc(NCc4ccc5[nH]ncc5c4)n3)c2c1` [Example 66, N^4-(1H-indazol-5-ylmethyl)-N^2-[2-(5-methoxy-1H-indol-3-yl)ethyl]pyrimidine-2,4-diamine], for which the EC50 with H69AR came out at 0.64 µM; in the test with MCF7, 3.35 µM; with H69 it was 11.6 µM; with U-937-vcr, 0.99 µM; with ACHN, 3.32 µM; in the test with HCT116 it was 2.45 µM. The EC50 in the test on U-937 came to 0.35 µM; with 8226/Dox40, 10 µM; in test [1], 210 nM; in the test with CEM/VM1 it was 0.27 µM; in the test with A2780, 0.78 µM; with RPMI 8226 it was 1.83 µM.
`Cc1cc2cc(Nc3ccnc(NCc4ccc5[nH]cnc5c4)n3)ccc2[nH]1` [Example 67, N^2-(1H-benzo[d]imidazol-5-ylmethyl)-N^4-(2-methyl-1H-indol-5-yl)pyrimidine-2,4-diamine]: the EC50 in the test on H69AR came to 0.71 µM; in the test on MCF7, 12.4 µM; in the test with H69, 37.2 µM; in the test with U-937-vcr, 1.74 µM; in the test on ACHN, 5.43 µM; in the test with HCT116, 2.47 µM. The EC50 is 0.22 µM in the test with U-937; 24.4 µM in the test on 8226/Dox40; 210 nM in test [1]; 0.33 µM in the test on CEM/VM1; 1.37 µM in the test on A2780; 5.01 µM in the test with RPMI 8226.
As to `c1cc(Nc2nccc(NCc3ccc4[nH]ccc4c3)n2)c2cn[nH]c2c1` [Example 76, N^4-(1H-indol-5-ylmethyl)-N^2-(1H-indazol-4-yl)pyrimidine-2,4-diamine], the EC50 in the test with H69AR turned out to be 0.34 µM; in the test on MCF7 it was 3.08 µM; with H69 it was 12.7 µM; in the test on U-937-vcr, 0.4 µM; with ACHN, 1.59 µM; in the test with HCT116, 3.09 µM. Further, the EC50 in the test on U-937 is 0.19 µM; in the test with 8226/Dox40 it was 1.1 µM; in test [1] it was 230 nM; in the test with CEM/VM1, 0.22 µM; with A2780, 0.34 µM; with RPMI 8226, 0.7 µM.
Turning to `c1cc(Nc2ccc3[nH]ccc3c2)nc(NCc2ccc3[nH]ccc3c2)n1` [Example 82, N^2-(1H-indol-5-ylmethyl)-N^4-(1H-indol-5-yl)pyrimidine-2,4-diamine], the EC50 in [1] was 490 nM.
Still for that read-out and setting: the figure for `Cc1cc(Nc2ccc3[nH]c(C)cc3c2)nc(NCc2ccc3[nH]ccc3c2)n1` [Example 83, N^2-(1H-indol-5-ylmethyl)-6-methyl-N^4-(2-methyl-1H-indol-5-yl)pyrimidine-2,4-diamine] is less than 10000 nM.
As to `COc1ccc2[nH]cc(CCNc3nc(C)cc(NCc4ccc5[nH]ccc5c4)n3)c2c1` [Example 84, N^4-(1H-indol-5-ylmethyl)-N^2-[2-(5-methoxy-1H-indol-3-yl)ethyl]-6-methylpyrimidine-2,4-diamine], the EC50 in the test on H69AR was found to be 0.35 µM; in the test with MCF7, 2.06 µM; in the test on H69, 5.47 µM; in the test on U-937-vcr, 0.27 µM; with ACHN, 1.62 µM; in the test on HCT116 it was 1.16 µM. The EC50 in the test on U-937 turned out to be 0.21 µM; in the test with 8226/Dox40, 2.58 µM; in test [1] it was 40 nM; with CEM/VM1, 0.19 µM; with A2780, 0.33 µM; with RPMI 8226, 0.45 µM.
On to `COc1ccc2[nH]cc(CCNc3nc(Cc4ccccc4)cc(NCc4ccc5[nH]ccc5c4)n3)c2c1` [Example 85, N^4-(1H-indol-5-ylmethyl)-6-benzyl-N^2-[2-(5-methoxy-1H-indol-3-yl)ethyl]pyrimidine-2,4-diamine], for which, in [1], the EC50 is less than 10000 nM.
Take `c1cc(Nc2ccc3[nH]cnc3c2)nc(NCc2ccc3[nH]ccc3c2)n1` [Example 95, N^2-(1H-indol-5-ylmethyl)-N^4-(1H-benzo[d]imidazol-5-yl)pyrimidine-2,4-diamine]: in [1], the EC50 was 900 nM.
Same read-out and setting: in the case of `Cc1nc2cc(Nc3ccnc(NCc4ccc5[nH]ccc5c4)n3)ccc2[nH]1` [Example 96, N^2-(1H-indol-5-ylmethyl)-N^4-(2-methyl-1H-benzo[d]imidazol-5-yl)pyrimidine-2,4-diamine] it was 680 nM.
Still for that read-out and setting: in the case of `CNC(=O)c1cc(Oc2ccc(NC(=O)Nc3ccc(Cl)c(C(F)(F)F)c3)cc2)ccn1` [Ref. 1, sorafenib, reference compound] it was 8300 nM; in that of `CCN(CC)CCNC(=O)c1c(C)[nH]c(/C=C2\C(=O)Nc3ccc(F)cc32)c1C` [Ref. 2, sunitinib, reference compound], 14100 nM; in that of `Cc1nc(Nc2ncc(C(=O)Nc3c(C)cccc3Cl)s2)cc(N2CCN(CCO)CC2)n1` [Ref. 3, dasatinib, reference compound], 9700 nM.

(Values after patent publication US8927547B2, “Pyrimidine derivatives” (Noviga Research AB, priority 2010, dated 2015).)
